Experimental data: patent US20070232575A1, “Treatment of Pulmonary Artery Hypertension with Dhea, Dheas, Dhea Analogs, or Dhea Derivatives” (priority 2004, published 2007)
Entries after “also recorded” stand apart in the source; their conditions may differ.

Tests used:
[1] = test system: chronic hypoxic-pulmonary artery hypertension (CH-PAH); assay: Mean pulmonary arterial pressure (PAP) in chronic hypoxic (CH-PAH) rat model; assay type: in vivo
Description: To study the mechanisms of PAH and its possible treatments, an animal model was utilized. The placement of rats in a hypobaric chamber for 7 to 21 days induced chronic hypoxia, resulting in CH-PAH, a useful model system for studying mammalian PAH.
(§1) The rat model experiments were performed as follows. Adult male Wistar rats (220-240 g) were randomized into five groups. […] Intravascular administration was performed via the catheter inserted in the right jugular vein.

[2] = test system: chronic hypoxic-pulmonary artery hypertension (CH-PAH); assay: Echocardiography: right ventricular (RV) wall thickness in CH rats; assay type: in vivo, rat
Description: as §1
To perform this procedure, the rats were first anaesthetized.

IPA wall = assay: CH-induced intrapulmonary artery (IPA) wall remodeling, media layer thickness; assay type: in vivo, rat
Description: Lung sections were formalin-fixed in preparation for histology studies. PA external diameter (PAED), PA internal diameter (PAID), and percentage vessel wall thickness (PAED−PAID)/PAED×100) were measured in small- and medium-sized PAs (80-150 μm). Each group was comprised of four rats, and 10 measures were made per rat by an investigator blinded to the treatment groups.
(§2) CH induces remodeling of the intrapulmonary artery (IPA) in the rat model of CH-PAH. To examine the changes in the IPA wall upon CH exposure, the following method was performed. Isometric contractions were measured in rings from IPAs that were mounted in vertical 5-ml organ baths of a computerized isolated organ bath system (IOX, EMKA Technologies, Paris), as described in Bonnet, S., et al. (2001, Am. J. Physiol. 281, L183-L192, which is incorporated by reference herein in its entirety). Baths were filled with Krebs-Henseleit solution (composition in mM: 118.4 NaCl/4.7 KCl/2.5 CaCl2/1.2 MgSO4/1.2 KH2PO4/25 NaHCO3/11.1 D-glucose, pH 7.4). The baths were maintained at 37° C. and bubbled with a 95% O2/5% CO2 gas mixture. The tissues were set at optimal length by equilibration against a passive load of 10 mN for rings obtained from normoxic rats and 20 mN for rings obtained from hypoxic rats (Jones, J. E., et al. (2002) Am. J. Physiol. 283, H364-H371, which is incorporated by reference herein in its entirety). A cumulative concentration-response curve was then constructed. A concentration increment was made once the maximal contractile effect of the preceding concentration had been recorded.

PASMCs from CH rats = assay: In vitro DHEA treatment of PASMCs, resting [Ca2+]i, with K channel blockers and pathway inhibitors; assay type: cell-based, rat
Description: (§3) The heart and lungs were removed and intrapulmonary arteries (IPAs) (150-300 μm of internal diameter) were then dissected. The adventitial and intimal layers were removed. For contraction experiments, rings (3 mm in length) were prepared.
As mentioned earlier, Ca^2+ is thought to play an important role in the response to chronic hypoxia. To measure the effects of DHEA on [Ca^2+]i of individual PASMCs, a [Ca^2+]i-sensitive fluorophore, indo-1 (Calbiochem, San Diego, Calif.), was employed. […] The recording system included a Nikon Diaphot inverted microscope fitted with epifluorescence.
To further examine how DHEA functions to decrease the [Ca^2+]i in PASMCs, the following experiment was performed.

BKCa [3] = molecular target: T1, BKCa (Rattus norvegicus, UniProt Q62976); assay: IbTx-induced contraction of IPA rings from CH-DHEA rats; assay type: in vivo; conditions: for increase of tension induced by IbTx: rings from CH-DHEA rats compared with control and CH rats
T1 construct: from tissue; host or cells: intrapulmonary artery rings of adult male Wistar rats
T1 sequence (Q62976 whole entry): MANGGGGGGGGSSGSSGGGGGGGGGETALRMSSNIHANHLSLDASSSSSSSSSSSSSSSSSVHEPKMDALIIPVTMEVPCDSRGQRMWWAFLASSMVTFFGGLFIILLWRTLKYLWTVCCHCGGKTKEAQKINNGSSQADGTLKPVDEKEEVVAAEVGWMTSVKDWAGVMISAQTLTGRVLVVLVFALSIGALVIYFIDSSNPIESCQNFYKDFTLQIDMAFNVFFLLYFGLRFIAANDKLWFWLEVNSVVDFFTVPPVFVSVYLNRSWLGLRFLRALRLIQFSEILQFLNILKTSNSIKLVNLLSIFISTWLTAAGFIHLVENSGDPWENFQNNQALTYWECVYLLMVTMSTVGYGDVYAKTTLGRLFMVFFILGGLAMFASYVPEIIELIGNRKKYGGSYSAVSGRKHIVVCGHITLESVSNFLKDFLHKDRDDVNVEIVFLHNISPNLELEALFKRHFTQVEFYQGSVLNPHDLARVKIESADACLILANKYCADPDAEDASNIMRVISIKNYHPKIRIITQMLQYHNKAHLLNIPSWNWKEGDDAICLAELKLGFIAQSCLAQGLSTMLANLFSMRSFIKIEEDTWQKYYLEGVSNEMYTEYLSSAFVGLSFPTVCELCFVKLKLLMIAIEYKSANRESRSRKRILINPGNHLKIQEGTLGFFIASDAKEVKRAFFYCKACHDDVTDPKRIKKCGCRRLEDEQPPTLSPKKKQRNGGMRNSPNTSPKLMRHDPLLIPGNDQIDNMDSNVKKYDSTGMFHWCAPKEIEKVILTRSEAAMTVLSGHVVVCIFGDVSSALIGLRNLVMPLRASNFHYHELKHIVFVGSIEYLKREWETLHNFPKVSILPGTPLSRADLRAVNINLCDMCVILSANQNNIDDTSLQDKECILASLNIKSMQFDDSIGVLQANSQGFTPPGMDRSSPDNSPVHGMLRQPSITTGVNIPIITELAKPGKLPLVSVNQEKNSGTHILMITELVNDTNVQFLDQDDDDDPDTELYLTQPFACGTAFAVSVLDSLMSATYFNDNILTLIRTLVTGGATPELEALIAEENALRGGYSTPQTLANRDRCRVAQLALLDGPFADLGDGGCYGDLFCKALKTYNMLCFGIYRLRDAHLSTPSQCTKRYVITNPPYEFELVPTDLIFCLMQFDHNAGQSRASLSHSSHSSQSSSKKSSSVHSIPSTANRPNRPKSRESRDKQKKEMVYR
T1 sequence (P97678 whole entry partner): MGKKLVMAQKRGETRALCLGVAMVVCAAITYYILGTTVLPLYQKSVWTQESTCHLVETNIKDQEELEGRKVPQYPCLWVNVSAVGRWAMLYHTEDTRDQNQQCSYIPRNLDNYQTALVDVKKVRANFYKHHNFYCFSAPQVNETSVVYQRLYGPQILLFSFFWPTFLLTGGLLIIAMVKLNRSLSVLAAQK
Description: Statistical analyses for the experiments described herein were performed by using NCSS 5.0 software (NCSS, Kaysville, Utah). Values were expressed as mean±SEM. Contractions were expressed as a percentage of K^+-rich (80 mM) solution-induced contractions. Intergroup differences were assessed by a repeated-measures ANOVA or factorial ANOVA, as appropriate. Post hoc analysis used a Fisher multiple comparison test. For some comparisons, the Pearson product moment correlation coefficient between pairs of variables was used as indicated (ORIGIN 5.0, OriginLab, Northampton, Mass.). Regarding the number of experiments, (n) refers to the number of rings or cells and (N) to the number of animals. Differences were considered significant when P<0.05.
as §3
as §2, with “The tissues were set at optimal length by equilibration against a passive load of 10 mN for rings obtained from normoxic rats and 20 mN for rings obtained from hypoxic rats (Jones, J. E., et al. (2002) Am. J. Physiol. 283, H364-H371, which is incorporated by reference herein in its entirety). A cumulative concentration-response curve was then constructed.” left out

BKCa [4] = molecular target: T2, BKCa (Homo sapiens, UniProt Q12791); conditions: hypoxic human pulmonary cells, Peng et al. 1999; cited from earlier work
T2 construct: host or cells: hypoxic human pulmonary cells
T2 sequence (Q12791 whole entry): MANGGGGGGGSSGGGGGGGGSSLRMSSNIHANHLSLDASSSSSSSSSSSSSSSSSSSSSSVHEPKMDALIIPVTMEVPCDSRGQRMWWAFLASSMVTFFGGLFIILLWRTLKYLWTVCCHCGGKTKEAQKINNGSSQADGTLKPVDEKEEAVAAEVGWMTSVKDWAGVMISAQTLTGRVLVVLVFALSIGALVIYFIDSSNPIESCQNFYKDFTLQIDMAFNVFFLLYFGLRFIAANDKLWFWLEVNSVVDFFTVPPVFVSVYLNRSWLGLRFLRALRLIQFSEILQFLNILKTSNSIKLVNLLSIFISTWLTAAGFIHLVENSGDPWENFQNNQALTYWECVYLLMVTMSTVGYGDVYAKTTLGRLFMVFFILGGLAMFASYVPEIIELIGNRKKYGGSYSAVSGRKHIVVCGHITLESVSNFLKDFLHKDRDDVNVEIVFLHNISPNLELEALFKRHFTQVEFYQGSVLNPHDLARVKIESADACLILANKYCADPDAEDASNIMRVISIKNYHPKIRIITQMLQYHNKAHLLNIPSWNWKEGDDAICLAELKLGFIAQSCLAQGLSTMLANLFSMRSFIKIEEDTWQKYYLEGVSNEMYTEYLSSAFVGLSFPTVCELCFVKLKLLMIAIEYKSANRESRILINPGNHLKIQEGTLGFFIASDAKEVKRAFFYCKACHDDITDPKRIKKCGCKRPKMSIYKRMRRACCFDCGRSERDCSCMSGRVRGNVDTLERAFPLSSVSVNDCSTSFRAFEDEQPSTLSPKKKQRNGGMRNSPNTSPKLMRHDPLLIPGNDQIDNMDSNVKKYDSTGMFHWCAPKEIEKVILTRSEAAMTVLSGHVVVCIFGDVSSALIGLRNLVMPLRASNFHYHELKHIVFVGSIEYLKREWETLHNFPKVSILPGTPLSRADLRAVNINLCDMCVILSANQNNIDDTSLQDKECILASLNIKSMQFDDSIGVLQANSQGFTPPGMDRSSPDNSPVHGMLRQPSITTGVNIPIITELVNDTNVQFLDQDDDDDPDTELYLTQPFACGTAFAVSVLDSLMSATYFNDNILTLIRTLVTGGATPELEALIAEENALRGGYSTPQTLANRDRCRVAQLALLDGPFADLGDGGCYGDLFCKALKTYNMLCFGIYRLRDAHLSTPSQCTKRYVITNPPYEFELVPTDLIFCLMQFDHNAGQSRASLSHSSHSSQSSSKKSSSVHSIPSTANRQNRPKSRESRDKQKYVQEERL

[5] = cited from earlier work
[6] = after 1 or 2 wk of hypoxia exposure with oral DHEA

C[C@]12CC[C@H](O)CC1=CC[C@@H]1[C@@H]2CC[C@]2(C)C(=O)CC[C@@H]12 [DHEA, dehydroepiandrosterone]
effect of additional intravascular DHEA on PAP ([1]; 3-week CH-DHEA treated rats): did not further reduce PAP; also recorded: no effect
PAP ([1]; 3-wk CH rats, ten minutes after acute intravascular DHEA 3 mg/kg, before 34.5±1.7): 24.4±2.5 mmHg
dose dependence of PAP decrease ([1]; CH rats, intravascular, successively increasing doses up to 3 mg/kg): dose-dependent manner
effect on PAP/PAH ([1]; CH rats, single intravascular dose of DHEA 3 mg/kg): significant decrease in PAP; also recorded: significantly decreased PAH
PAP ([1]; CH-DHEA rats: oral DHEA 30 mg/kg every alternate day during 3 wk hypoxia, untreated CH 34.5±1.7): 21.7±1.1 mm Hg
decrease of PAP ([1]; CH-PAH rats, intravascular 0.03 mg/kg): ~10%
decrease in PAP ([1]; CH-PAH rats, intravascular 0.3 mg/kg): ~25%
decrease in PAP ([1]; CH-PAH rats, intravascular 3.0 mg/kg): ~45%
PAP, CH-DHEA vs control rats [1, 6]: no difference
effect of intravascular DHEA on PAP ([1]; control animals): no effect
effect on PAP/PAH (reversal) ([1]; hypertensive CH rats, 1-wk oral DHEA 30 mg/kg every alternate day): partially but significantly reversed; also recorded: significantly decreased PAH
effect on PAP (prevention) ([1]; oral DHEA for 3 weeks during chronic hypoxia, vs CH rats): significant preventive effect; also recorded: decreased; also recorded: almost entirely prevent
effect on PAP ([1]; oral DHEA, normoxic rats): no effect
PAP ([1]; rats 3 weeks in CH, oral DHEA during the last week, no DHEA 35.9±1.9): 21±1.1 mm Hg
RV wall thickness ([2]; CH-DHEA rats, oral DHEA during 3 wk hypoxia, untreated CH 2.74±0.5): 1.6±0.03 mm
RV wall thickness, CH-DHEA vs control rats [2, 6]: no difference
effect on RV wall thickness / right ventricle hypertrophy (prevention) ([2]; oral DHEA for 3 weeks during chronic hypoxia): significant preventive effect; also recorded: decreased; also recorded: almost entirely prevent
effect on RV wall thickness ([2]; oral DHEA, normoxic rats): no effect
RV wall thickness ([2]; rats 3 weeks in CH, oral DHEA during the last week, no DHEA 2.97±0.4): 1.91±0.2 mm
increase in media layer thickness compared with control rats (IPA wall; CH-DHEA rats, 3 weeks, CH untreated 33%): 11%
effect on PA wall remodeling (prevention) (IPA wall; oral DHEA 3 weeks during CH): significant protective effect; also recorded: almost entirely prevent; also recorded: prevented the PA wall remodeling
effect on PA wall remodeling (reversal) (IPA wall; oral DHEA during last week of 3 weeks CH): partially but significantly reversed; also recorded: decreased the PA remodeling
effect on [Ca2+]i (PASMCs from CH rats; DHEA 100 μM, PASMCs from normoxic, normoxic-DHEA and CH-DHEA rats): did not alter
resting [Ca2+]i value (PASMCs from CH rats; PASMCs from CH rats, 15 minute in vitro 100 μM DHEA, before 143±7): 82 ± 3 nM
effect on resting [Ca2+]i (PASMCs from CH rats; PASMCs from CH rats, in vitro DHEA 100 μM): significant decrease; also recorded: decrease of the resting [Ca^2+]i
increase of tension induced by IbTx (BKCa [3]; 100 nM IbTx): 52%
increase of tension induced by IbTx (BKCa [3]; 300 nM IbTx): 55%
sensitivity/reactivity of IPA rings to IbTx (BKCa [3]; rings from CH-DHEA rats vs CH rats): increase the sensitivity for IbTx; also recorded: increase in the IbTx response; also recorded: higher reactivity to IbTx
action on BKCa (BKCa [4]): BKCa opener
toxicity in short- and long-term human studies ([5]; Baulieu et al. 2000): without major toxicity
safety of large amounts in human patients ([5]; Tummala & Svec 1999): safely administered
